Measurements from patent publication US20200405696A1, “INHIBITORS OF INDOLEAMINE 2,3-DIOXYGENASE AND/OR TRYPTOPHAN 2,3-DIOXYGENASE” (IDORSIA PHARMACEUTICALS LTD, priority 2018, published 2020).

Tests used:
[1] = target: T1, Recombinant full-length human IDO1 (Homo sapiens, UniProt P14902); test: IDO1 enzymatic assay (NFK quantified by LCMS); format: biochemical; conditions: 2 nM enzyme, 5 μM L-tryptophan, pH6.5, 30 minutes pre-incubation at RT; mean values when measured multiple times; read-out: hIDO activity (IC50 in nM)
T1 construct: Recombinant full-length human IDO1 with a N-terminal hexahistidine tag; hexahistidine (His6) (N); made in house; host or cells: E. coli
Description: 1) Testing Compounds for IDO Inhibitory Activity in an IDO1 Enzymatic Assay:
Recombinant full-length human IDO1 with a N-terminal hexahistidine tag expressed in E. coli and purified to homogeneity is incubated at a final concentration of 2 nM in assay buffer consisting of 37.5 mM phosphate buffer at pH6.5 supplemented with 10 mM ascorbic acid, 0.45 μM methylene blue, 50U/ml catalase, 0.01% BSA, and 0.01% Tween 20 (protocol modified from Seegers et al, JBS 2014). Example compounds are serially diluted in DMSO, further diluted in phosphate buffer, and added to the enzyme at final concentrations ranging from 10 μM to 0.5 nM. The final DMSO concentration is 0.6%. Following a pre-incubation of 30 minutes at RT, the reaction is started by the addition of L-tryptophan at a final concentration of 5 μM in assay buffer. After 30 minutes of incubation at RT, 3 μL of the 20 μl reaction mixture are transferred to a 384 deep well plate containing 25 μL of deionized water. 100 μl of 200 nM L-Tryptophan-(indole-d5) in cold 100% methanol are added followed by a 10 minutes centrifugation at 3220×g at 4° C. An additional 75 μL of deionized water are then added followed by a 10 minutes centrifugation at 3220×g at 4° C. The product of the reaction N′-Formylkynurenine (NFK) is quantified by LCMS and normalized to the L-Tryptophan-(indole-d5) signal. Samples with 0.6% DMSO (0% effect) and a TDO/IDO inhibitor (100% effect) are used as control samples to set the parameters for the non-linear regression necessary for the determination of the half-maximal inhibitory concentration (IC50) for each compound. For each compound concentration the percentage of activity compared to 0% and 100% effect is calculated as average±STDEV (each concentration measured in duplicate). IC50 values and curves are generated with XLfit software (IDBS) using Dose-Response One Site model 203 (four parameter logistic curve model). The calculated IC50 values may fluctuate depending on the daily assay performance. Fluctuations of this kind are known to those skilled in the art. When compounds are measured multiple times, mean values are given.

[2] = target: T2, Recombinant human TDO comprising amino acids 19-407 (Homo sapiens, UniProt P48775); test: TDO2 enzymatic assay (NFK quantified by LCMS); format: biochemical; conditions: 15 nM enzyme, 200 μM L-tryptophan, pH7, 30 minutes pre-incubation at RT; mean values when measured multiple times; read-out: hTDO activity (IC50 in nM)
T2 construct: Recombinant human TDO comprising amino acids 19-407 with a N-terminal hexahistidine tag; hexahistidine (His6) (N); made in house; host or cells: E. coli
Description: 2) Testing Compounds for TDO Inhibitory Activity in a TDO2 Enzymatic Assay:
Recombinant human TDO comprising amino acids 19-407 with a N-terminal hexahistidine tag expressed in E. coli and purified to homogeneity is incubated at a final concentration of 15 nM in assay buffer consisting of 75 mM phosphate buffer at pH7 supplemented with 100 μM ascorbic acid, 50U/ml Catalase, 0.01% BSA, and 0.01% Tween 20 (protocol modified from Seegers et al, JBS 2014). Example compounds are serially diluted in DMSO, further diluted in phosphate buffer, and added to the reaction mixture at final concentrations ranging from 10 μM to 0.5 nM. The final DMSO concentration is 0.6%. Following a pre-incubation of 30 minutes at RT, the reaction is started by the addition of L-tryptophan at a final concentration of 200 μM in assay buffer. After 30 minutes of incubation at RT, 3 μL of the reaction mixture are transferred to a 384 deep well plate containing 25 μL of deionized water. 100 μl of 200 nM L-Tryptophan-(indole-d5) in cold 100% methanol are added followed by a 10 minutes centrifugation at 3220×g at 4° C. An additional 75 μL of deionized water are then added followed by a 10 minutes centrifugation at 3220×g at 4° C. The product of the reaction N′-Formylkynurenine (NFK) is quantified by LCMS and normalized to the L-Tryptophan-(indole-d5) signal. Samples with 0.6% DMSO (0% effect) and a TDO/IDO inhibitor (100% effect) are used as control samples to set the parameters for the non-linear regression necessary for the determination of the half-maximal inhibitory concentration (IC50) for each compound. For each compound concentration the percentage of activity compared to 0% and 100% effect is calculated as average±STDEV (each concentration measured in duplicate). IC50 values and curves are generated with XLfit software (IDBS) using Dose-Response One Site model 203 (four parameter logistic curve model). The calculated IC50 values may fluctuate depending on the daily assay performance. Fluctuations of this kind are known to those skilled in the art. When compounds are measured multiple times, mean values are given.

T2 sequence (P48775 19-406 limits assumed): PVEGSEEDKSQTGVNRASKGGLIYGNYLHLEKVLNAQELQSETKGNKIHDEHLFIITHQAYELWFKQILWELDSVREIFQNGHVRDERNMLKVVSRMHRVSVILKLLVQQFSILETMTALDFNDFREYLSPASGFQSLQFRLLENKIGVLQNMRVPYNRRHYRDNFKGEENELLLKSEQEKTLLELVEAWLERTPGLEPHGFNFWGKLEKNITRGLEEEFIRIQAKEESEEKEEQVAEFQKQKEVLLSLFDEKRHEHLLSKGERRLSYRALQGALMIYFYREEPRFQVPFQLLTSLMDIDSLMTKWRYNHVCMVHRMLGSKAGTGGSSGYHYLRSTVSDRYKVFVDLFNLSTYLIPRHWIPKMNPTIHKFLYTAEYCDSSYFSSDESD
T1 sequence (P14902 whole entry): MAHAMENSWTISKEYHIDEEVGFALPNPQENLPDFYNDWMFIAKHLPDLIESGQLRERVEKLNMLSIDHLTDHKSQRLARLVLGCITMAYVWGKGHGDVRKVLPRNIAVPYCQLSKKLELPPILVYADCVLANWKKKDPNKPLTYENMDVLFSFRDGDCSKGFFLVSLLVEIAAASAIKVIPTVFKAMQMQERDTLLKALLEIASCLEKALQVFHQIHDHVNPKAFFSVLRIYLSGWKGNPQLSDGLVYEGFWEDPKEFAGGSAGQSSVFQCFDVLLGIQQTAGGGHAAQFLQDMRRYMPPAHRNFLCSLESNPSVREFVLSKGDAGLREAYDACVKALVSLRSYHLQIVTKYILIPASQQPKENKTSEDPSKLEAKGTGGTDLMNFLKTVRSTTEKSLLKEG

| Structure (SMILES) | IC50 [1] [nM] | IC50 [2] [nM] |
| --- | --- | --- |
| CC(C)(O)CCOc1ccc(-n2cc(C(O)c3c(C4(C)CC4)sc4cncn34)nn2)cc1Cl (racemic) [Example 303, rac-4-[2-Chloro-4-(4-{hydroxy-[2-(1-methyl-cyclopropyl)-imidazo[5,1-b]thiazol-3-yl]-methyl}-[1,2,3]triazol-1-yl)-phenoxy]-2-methyl-butan-2-ol] | 23.6 | > 10200 |
| CCN(CC)S(=O)(=O)c1ccc(-n2cc(C(O)c3c(C4CC4)sc4cncn34)nn2)cc1 (racemic) [Example 238, rac-4-{4-[(2-Cyclopropyl-imidazo[5,1-b]thiazol-3-yl)-hydroxy-methyl]-[1,2,3]triazol-1-yl}-N,N-diethyl-benzenesulfonamide] | 137 | > 10200 |
| OC(c1ncc(-c2ccccc2)s1)c1c(C2CC2)sc2cncn12 (racemic) [Example 171, rac-(2-Cyclopropyl-imidazo[5,1-b]thiazol-3-yl)-(5-phenyl-thiazol-2-yl)-methanol] | 578 | > 10200 |
| Cn1ccc2cc(-n3cc(C(O)c4c(C5CC5)sc5cncn45)cn3)cnc21 (racemic) [Example 229, rac-(2-Cyclopropyl-imidazo[5,1-b]thiazol-3-yl)-[1-(1-methyl-1H-pyrrolo[2,3-b]pyridin-5-yl)-1H-pyrazol-4-yl]-methanol] | 43.7 | 1440 |
| COc1ccc(-n2cc(C(O)c3c(C4CC4)sc4cncn34)cn2)cc1C#N (racemic) [Example 247, rac-5-{4-[(2-Cyclopropyl-imidazo[5,1-b]thiazol-3-yl)-hydroxy-methyl]-pyrazol-1-yl}-2-methoxy-benzonitrile] | 31.3 | 8140 |
| COC(=O)c1ccc(Cn2cc(C(O)c3c(C4CC4)sc4cncn34)nn2)cc1 (racemic) [Example 297, rac-4-{4-[(2-Cyclopropyl-imidazo[5,1-b]thiazol-3-yl)-hydroxy-methyl]-[1,2,3]triazol-1-ylmethyl}-benzoic acid methyl ester] | 16 | > 10200 |
| OC(c1cn(-c2ccc(OCC3CCCO3)cc2)nn1)c1c(C2CC2)sc2cncn12 (racemic) [Example 90, rac-(2-Cyclopropyl-imidazo[5,1-b]thiazol-3-yl)-{1-[4-(tetrahydro-furan-2-ylmethoxy)-phenyl]-1H-[1,2,3]triazol-4-yl}-methanol] | 18.7 | > 10200 |
| Cc1sc2cncn2c1C(O)c1cnn(-c2ccccc2)c1C (racemic) [Example 98, rac-(2-Methyl-imidazo[5,1-b]thiazol-3-yl)-(5-methyl-1-phenyl-1H-pyrazol-4-yl)-methanol] | 186 | 864 |
| COCCNC(=O)c1ccc(-n2cc(C(O)c3c(C4CC4)sc4cncn34)nn2)cc1 (racemic) [Example 102, rac-4-{4-[(2-Cyclopropyl-imidazo[5,1-b]thiazol-3-yl)-hydroxy-methyl]-[1,2,3]triazol-1-yl}-N-(2-methoxy-ethyl)-benzamide] | 23.2 | > 10200 |
| N#Cc1ccc(-c2ccc(C(O)c3c(C4CC4)sc4cncn34)s2)cc1 (racemic) [Example 173, rac-4-{5-[(2-Cyclopropyl-imidazo[5,1-b]thiazol-3-yl)-hydroxy-methyl]-thiophen-2-yl}-benzonitrile] | 732 | > 10200 |
| O=S1(=O)CCC(COc2ccc(-n3cc(C(O)c4c(C5CC5)sc5cncn45)nn3)cc2)CC1 (racemic) [Example 147, rac-(2-Cyclopropyl-imidazo[5,1-b]thiazol-3-yl)-{1-[4-(1,1-dioxo-hexahydro-1I6-thiopyran-4-ylmethoxy)-phenyl]-1H-[1,2,3]triazol-4-yl}-methanol] | 12.9 | > 10200 |
| OC(c1cn(-c2ccc3c(Cl)n[nH]c3c2)nn1)c1c(C2CC2)sc2cncn12 (racemic) [Example 258, rac-[1-(3-Chloro-1H-indazol-6-yl)-1H-[1,2,3]triazol-4-yl]-(2-cyclopropyl-imidazo[5,1-b]thiazol-3-yl)-methanol] | 34 | > 10200 |

The next lines start with the values.

| IC50 [1] [nM] | IC50 [2] [nM] | Structure (SMILES) |
| --- | --- | --- |
| 9.03 | 7880 | OC(c1cn(-c2ccc3[nH]ccc3c2)nn1)c1c(C2CC2)sc2cncn12 (racemic) [Example 16, rac-(2-Cyclopropyl-imidazo[5,1-b]thiazol-3-yl)-[1-(1H-indol-5-yl)-1H-[1,2,3]triazol-4-yl]-methanol] |
| 26 | > 10200 | CNC(=O)c1ccc(-n2cc(C(O)c3c(C4CC4)sc4cncn34)nn2)cc1 (racemic) [Example 182, rac-4-{4-[(2-Cyclopropyl-imidazo[5,1-b]thiazol-3-yl)-hydroxy-methyl]-[1,2,3]triazol-1-yl}-N-methyl-benzamide] |
| 24.1 | > 10200 | Cc1ccc(-n2cc(C(O)c3c(C4CC4)sc4cncn34)nn2)cc1O (racemic) [Example 218, rac-5-{4-[(2-Cyclopropyl-imidazo[5,1-b]thiazol-3-yl)-hydroxy-methyl]-[1,2,3]triazol-1-yl}-2-methyl-phenol] |
| 22.8 | > 10200 | OC(c1cn(-c2cccc3ncccc23)nn1)c1c(C2CC2)sc2cncn12 (racemic) [Example 24, rac-(2-Cyclopropyl-imidazo[5,1-b]thiazol-3-yl)-(1-quinolin-5-yl-1H-[1,2,3]triazol-4-yl)-methanol] |
| 24.1 | > 10200 | OC(c1cn(-c2cccc3cc[nH]c23)nn1)c1c(C2CC2)sc2cncn12 (racemic) [Example 27, rac-(2-Cyclopropyl-imidazo[5,1-b]thiazol-3-yl)-[1-(1H-indol-7-yl)-1H-[1,2,3]triazol-4-yl]-methanol] |
| 127 | 8890 | Oc1ccc(-n2cc(C(O)c3c(C4CC4)sc4cncn34)nn2)c(C(F)(F)F)c1 (racemic) [Example 214, rac-4-{4-[(2-Cyclopropyl-imidazo[5,1-b]thiazol-3-yl)-hydroxy-methyl]-[1,2,3]triazol-1-yl}-3-trifluoromethyl-phenol] |
| 18.3 | > 10200 | OC(c1cn(-c2ccnc3ccccc23)nn1)c1c(C2CC2)sc2cncn12 (racemic) [Example 25, rac-(2-Cyclopropyl-imidazo[5,1-b]thiazol-3-yl)-(1-quinolin-4-yl-1H-[1,2,3]triazol-4-yl)-methanol] |
| 15.3 | > 10200 | COc1ccc(-n2cc(C(O)c3c(C4CC4)sc4cncn34)nn2)cc1Br (racemic) [Example 290, rac-[1-(3-Bromo-4-methoxy-phenyl)-1H-[1,2,3]triazol-4-yl]-(2-cyclopropyl-imidazo[5,1-b]thiazol-3-yl)-methanol] |
